Where “and” joins values, the source holds several entries; their conditions need not be identical. Equal values may be shown once.
Conditions: Hot wire method

Cc1ccccc1 [toluene]
Liquid
Conditions	thermal conductivity [W/m/K]
318.8 K	0.1241
328.48 K	0.1218
333.34 K	0.1209
338.23 K	0.1195
341.16 K	0.1201
343.09 K	0.1176
346.01 K	0.116
350.87 K	0.1149
355.71 K	0.1151
365.42 K	0.1116
370.29 K	0.1112

N#N [nitrogen]
Gas
Conditions	thermal conductivity
321.58 K, 2776.2 kPa	0.0278 W/m/K
321.95 K, 2778.7 kPa	0.02777 W/m/K
321.99 K, 2778.7 kPa	0.02793 W/m/K
322.25 K, 2776.2 kPa	0.02762 W/m/K
322.29 K, 2776.2 kPa	0.02772 W/m/K
322.61 K, 2776.2 kPa	0.02762 W/m/K
323.16 K, 1008.8 kPa	0.02726 W/m/K
323.18 K, 1008.8 kPa	0.02729 W/m/K
324.06 K, 1008.8 kPa	0.02748 W/m/K
324.12 K, 1008.8 kPa	0.02747 W/m/K
325.1 K, 1008.8 kPa	0.0277 W/m/K and 0.02772 W/m/K
325.44 K, 574.1 kPa	0.02822 W/m/K
326.18 K, 2705.7 kPa	0.02794 W/m/K
326.24 K, 2705.7 kPa	0.02859 W/m/K
326.43 K, 4299.5 kPa	0.02906 W/m/K
326.51 K, 4299.5 kPa	0.02914 W/m/K
326.67 K, 3835.8 kPa	0.02909 W/m/K and 0.02897 W/m/K
326.72 K, 2705.7 kPa	0.02848 W/m/K
326.75 K, 2705.7 kPa	0.02853 W/m/K
327.32 K, 1657.7 kPa	0.02798 W/m/K
327.57 K, 1657.7 kPa	0.02789 W/m/K
327.66 K, 4299.5 kPa	0.0294 W/m/K
327.7 K, 4299.5 kPa	0.02966 W/m/K
327.84 K, 1209.3 kPa	0.02782 W/m/K
327.85 K, 1209.3 kPa	0.02748 W/m/K
327.86 K, 3835.8 kPa	0.0294 W/m/K and 0.02906 W/m/K
328.83 K, 1657.7 kPa	0.02814 W/m/K
328.85 K, 1657.7 kPa	0.02817 W/m/K
329.15 K, 1209.3 kPa	0.02785 W/m/K
329.17 K, 1209.3 kPa	0.02784 W/m/K
330.94 K, 2682.6 kPa	0.02851 W/m/K
330.96 K, 2682.6 kPa	0.0287 W/m/K
332.04 K, 2682.6 kPa	0.02834 W/m/K
332.12 K, 2682.6 kPa	0.02902 W/m/K
335.72 K, 2657.4 kPa	0.02849 W/m/K
335.73 K, 2657.4 kPa	0.02905 W/m/K
336.01 K, 4212.3 kPa	0.02961 W/m/K
336.02 K, 4212.3 kPa	0.02949 W/m/K
336.33 K, 2657.4 kPa	0.02874 W/m/K
336.36 K, 2657.4 kPa	0.02885 W/m/K
337.13 K, 4212.3 kPa	0.03001 W/m/K and 0.0297 W/m/K
340.86 K, 2579.4 kPa	0.02926 W/m/K
340.87 K, 2579.4 kPa	0.02913 W/m/K
341.16 K, 2579.4 kPa	0.02959 W/m/K
341.21 K, 2579.4 kPa	0.02922 W/m/K
